Reference: patent US10722491B2, “Phenol compound and combination of same with a benzodiazepine fused to 1,4-dihydropyridine for treating diseases of the central nervous and vascular systems” (UNIVERSIDAD DE LA HABANA, priority 2016, dated 2020)

Columns and labels:
[1] = tested on: scopolamine cognitive deficit; assay: Scopolamine-induced dementia, T maze spontaneous alternation; type: in vivo, rats; conditions: 2, 4 and 8 mg/kg p.o., 1 hour before scopolamine 1 mg/kg i.p.
Method: FIG. 11. Effect of KM-34 on spatial memory. In the T labyrinth, KM-34 (2, 4 and 8 mg/k, p.o) was given 1 hour prior to scopolamine (1 mg/kg, i.p.). Data are expressed as mean ± SD (n=7, per group) of the percentage of spontaneous alternation. For statistical anal sis ANOVA and Tukey's multiple comparison test were performed. Different letters differ from each other for p<0.01. In in vivo models, KM-34 was administered orally (p.o) at a rate of 4 mL/kg body weight. Doses of 2, 4 and 8 mg/kg were evaluated as acute administration 90 minutes before the start of behavioral tests. For administration the compound was suspended in carboxymethylcellulose (CMC) 0.05%. Scopolamine bromide was dissolved in 0.9% saline solution and administered intraperitoneally as a single dose (1 mg/kg, 4 mL/kg body weight) 30 minutes prior to the initiation of the behavioral tests. The animals were randomly selected and divided into 5 experimental groups with different treatments (n=7, per group): control group (CMC and saline), vehicle group (CMC and scopolamine 1 mg/kg), KM-34 (KM-34 4 mg/kg and scopolamine 1 mg/kg) and (KM-34 8 mg/kg and scopolamine 1 mg/kg). […] The series of entries to each arm was recorded and the percentage of alternation was calculated as: (number of alternations performed/total of possible alternations)×100. […]

[2] = KM-34 capacity to reduce DPPH radicals; type: biochemical
Method: FIG. 1. Percentage reduction of DPPH (100 μM) by KM-34 (5-400 μM) was determined by changing in the absorbance at 550 nm from a target containing only DPPH and vehicle (zero concentration of KM −34 or AA), after 30 minutes of reaction. Values are expressed as the mean ± SD (n=3). *P<0.05 with respect to the vehicle.
One of the most commonly used methods to estimate antioxidant activity is to evaluate the ability of different compounds to reduce DPPH radicals, which can be determined spectrophotometrically (Brand-Williams et al., 1995). […] Electron delocalization causes the intense violet coloration of the DPPH radical form when it is prepared in ethanol solution (Molyneux et al., 2004).
The IC 50 value obtained for KM was approximately 2.4 times lower than that obtained for ascorbic acid (AA) used as the reference compound.

[3] = tested on: animals damaged with 6-OHDA; assay: 6-OHDA Parkinson's model, cylinder test; type: in vivo, rats; conditions: 7 days after 6-OHDA damage
[4] = tested on: occlusion of the middle cerebral artery in rats; assay: Transient middle cerebral artery occlusion, cerebral infarct size (TTC); type: in vivo; conditions: for Total volume of infarction (percentage of the contralateral hemisphere): 1 hour after reperfusion, 90 min occlusion, 23 h reperfusion, vehicle 27.5%
Method: FIG. 13. Acute treatment with KM-34 reduced the volume of infarction edema and deficit in rat behavior after 90 min of middle cerebral artery occlusion (MACA) and 23 hours of reperfusion. The different doses of the compound were administered orally 1 hour after reperfusion. (A) Representative brain coronal sections (2 mm thick) of the sham and ischemic groups treated with vehicle or KM-34 (0.1, 0.5 or 1 mg/kg) and stained with 2,3,5-triphenyltetrazolium (TTC) 2%. The red regions correspond to undamaged tissue and white to ischemic regions. (B) Quantitative analysis of cortical, subcortical and total lesion size. (C) Neurological deficit. The bars represent the mean ± SEM (n=8). Different letters in (A) and * in (B): p<0.05, by ANOVA and post hoc of Newman-Keuls. Scale=10 mm.
The animals were randomly divided into the following groups (n=8 per group): (1) vehicle treated ischemia/reperfusion (I/R) control, (2) KM-34 treated I/R 0.1 mg/kg, (3) I/R treated with KM-34 0.5 mg/kg, (4) I/R treated with KM-34 1 mg/kg, (5) sham-operated vehicle treated and (6) sham—With KM-34 1 mg/kg. In all cases the treatment was administered orally (with an intragastric cannula). […]
Transient cerebral ischemia was performed by the OACM, using the intraluminal filament method. […] After 23 hours of reperfusion, the neurological deficit was evaluated and the animals sacrificed to determine the infarct volume and perform the behavioral evaluations.
Cerebral infarction was determined by staining with TTC, a colorless compound in solution but which, when reduced by dehydrogenases of functional mitochondria, forms a red brick formazan salt. […]
The animals were anesthetized again after the neurological evaluation and were perfused transcardially with 20 mL of saline at 4° C. […] The edema index (volume of the hemisphere ipsilateral to the OACM/volume of the contralateral hemisphere) and the volume of corrected infarction (volume of the lesion/edema index) were calculated to avoid overestimation of the infarct volume by cerebral edema. Infarct volume was expressed as a percentage of the contralateral hemisphere.

Q: For `CC1(C)OC(=O)C(=Cc2ccc(O)c(O)c2)C(=O)O1` [KM-34, 5-[(3,4-dihydroxyphenyl)methylidene]-2,2-dimethyl-1,3-dioxane-4,6-dione], which “Spatial memory, percentage of spontaneous alternation in T maze” value [1] is on record?
A: Its value is “significantly (p<0.01) protected from spatial memory damage”.

Q: And the IC50 ([2]; DPPH 100 μM, 30 minutes of reaction, read-out: IC50, reduction of DPPH radicals)?
A: Its IC50 is 16.3 µM.

Q: And the “IC50 of KM relative to ascorbic acid (times lower)” value ([2]; DPPH, AA as reference compound)?
A: The value was “approximately 2.4 times”.

Q: What about the “Concentration giving significant (p<0.05) inhibition of the DPPH radical vs vehicle” value ([2]; after 30 minutes of reaction) of the same compound?
A: The value was “higher than 5 μM”.

Q: What about the DPPH reduction response ([2]; at concentrations above 50 μM) of the same compound?
A: Its DPPH reduction response is “reached its maximum response”.

Q: What about the “% asymmetry, cylinder test” value ([3]; 0.5 mg/kg) of the same compound?
A: The value was “no statistically significant difference with respect to the damaged group without treatment”.

Q: And the “% asymmetry, cylinder test” value ([3]; 2 mg/kg and 1 mg/kg)?
A: The value was “equal to the animals (healthy) animals”.

Q: What about the “Total volume of infarction (percentage of the contralateral hemisphere)” value ([4]; 0.5 mg/kg oral) of the same compound?
A: Its value is 15.7%.

Q: What about the “Total volume of infarction (percentage of the contralateral hemisphere)” value ([4]; 1 mg/kg oral) of the same compound?
A: The value was 5.3%.

Q: What about the “Tissue damage or behavioral alterations under basal conditions” value ([4]; sham group (without OACM), KM-34 1 mg/kg oral) of the same compound?
A: The value was “no sign of tissue damage or behavioral alterations”.
